ChEMBL document CHEMBL4177647, “Conformational properties of ascydiacyclamide analogues with cyclic α-amino acids instead of oxazoline residues” (2017)
Converted amounts (≈) assume the structure as drawn.

How the values were obtained:
Assay type in all cases: functional
P388 [1] = test: Cytotoxicity against mouse P388 cells after 72 hrs by MTT assay; settings: P388, 72 h, read-out: ED50 (the source's name)
HL-60 [2] = test: Cytotoxicity against human HL60 cells after 72 hrs by MTT assay; settings: HL-60, 72 h, read-out: ED50 (the source's name)
HL-60 [3] = test: Potency index, ratio of ED50 for Ascidiacyclamide to ED50 test compound against human HL60 cells after 72 hrs by MTT assay
P388 [4] = test: Cytotoxicity against mouse P388 cells after 72 hrs by MTT assay relative to Ascidiacyclamide

Compound	EC50 (P388 [1]) [µg/mL]	EC50 (HL-60 [2]) [µg/mL]	Ratio ED50 (HL-60 [3])	Activity (P388 [4]) [%]
CC[C@H](C)[C@@H]1NC(=O)c2csc(n2)[C@@H](C(C)C)NC(=O)[C@@H]2CCCN2C(=O)[C@H]([C@@H](C)CC)NC(=O)c2csc(n2)[C@@H](C(C)C)NC(=O)[C@@H]2CCCN2C1=O	19.4 (≈ 24.7 µM)	10.4 (≈ 13.2 µM)	3	–
CC[C@H](C)[C@@H]1NC(=O)c2csc(n2)[C@@H](C(C)C)NC(=O)[C@@H]2CCN2C(=O)[C@H]([C@@H](C)CC)NC(=O)c2csc(n2)[C@@H](C(C)C)NC(=O)[C@@H]2CCN2C1=O	> 100	> 100	–	–
CC[C@H](C)[C@@H]1NC(=O)c2csc(n2)[C@@H](C(C)C)NC(=O)[C@H]2N=C(O[C@@H]2C)[C@H]([C@@H](C)CC)NC(=O)c2csc(n2)[C@@H](C(C)C)NC(=O)[C@H]2N=C1O[C@@H]2C [ASCIDIACYCLAMIDE]	10.5 (≈ 13.9 µM)	–	–	–
CC[C@H](C)[C@@H]1NC(=O)c2csc(n2)[C@@H](C(C)C)NC(=O)[C@@H]2C=CCN2C(=O)[C@H]([C@@H](C)CC)NC(=O)c2csc(n2)[C@@H](C(C)C)NC(=O)[C@@H]2C=CCN2C1=O	> 100	> 100	–	–
CC[C@H](C)[C@@H]1NC(=O)c2csc(n2)[C@@H](C(C)C)NC(=O)[C@@H]2CCCCN2C(=O)[C@H]([C@@H](C)CC)NC(=O)c2csc(n2)[C@@H](C(C)C)NC(=O)[C@@H]2CCCCN2C1=O	15.8 (≈ 19.4 µM)	15 (≈ 18.4 µM)	2	66
